In patent US20190185518A9, “WARHEAD-CONTAINING PEPTIDOMIMETIC MACROCYCLES AS MODULATORS OF BFL-1” (AILERON Therapeutics, Inc., priority 2017, published 2019):
Blank lines part the entries; values can stand above or below the molecule they belong to. Positions of bridges follow the written chain, without caps; N, C: chain ends. Non-standard residues stand in square brackets, D forms with d. Residues, ends and D or L forms follow the SMILES beside them. Phe(4-F) = N[C@@H](Cc1ccc(F)cc1)C(=O)O; 2Nal = N[C@@H](Cc1ccc2ccccc2c1)C(=O)O; R8 = C=CCCCCCC[C@@](C)(N)C(=O)O; hLeu = CC(C)CC[C@H](N)C(=O)O; S5 = C=CCCC[C@](C)(N)C(=O)O

How the values were obtained:
Bcl-xL = Bcl-xL (Homo sapiens, UniProt Q07817); experiment: Ki determination for Bcl-xL (BCL-2 family binding spectrum); conditions: read-out: Ki BCL-XL
Description: (§1) To assess the binding and affinity of compounds that antagonize the interaction between a peptide and an acceptor protein, a fluorescence polarization assay (FPA) utilizing a fluoresceinated peptidomimetic macrocycle derived from a peptidomimetic precursor sequence is used, for example. The FPA technique measures the molecular orientation and mobility using polarized light and fluorescent tracer. […] A compound that antagonizes the interaction between the fluoresceinated peptidomimetic macrocycle and an acceptor protein will be detected in a competitive binding FPA experiment.
For example, putative antagonist compounds (1 nM to 1 mM) and a fluoresceinated peptidomimetic macrocycle (25 nM) are incubated with the acceptor protein (50 nM) in binding buffer (140 mM NaCl, 50 mM Tris-HCL, pH 7.4) for 30 minutes at room temperature. Antagonist binding activity is measured, for example, by fluorescence polarization on a luminescence spectrophotometer (e.g. Perkin-Elmer LS50B). Kd values may be determined by nonlinear regression analysis using, for example, Graphpad Prism software (GraphPad Software, Inc., San Diego, Calif.).

Mcl-1 = Mcl-1 (Homo sapiens, UniProt Q07820); experiment: Ki determination for Mcl-1 (BCL-2 family binding spectrum); conditions: read-out: Ki MCL-1
Description: as §1
Antagonist binding activity is measured, for example, by fluorescence polarization on a luminescence spectrophotometer (e.g. Perkin-Elmer LS50B). Kd values may be determined by nonlinear regression analysis using, for example, Graphpad Prism software (GraphPad Software, Inc., San Diego, Calif.).

Mcl-1, sequence (Q07820 whole entry, species assumed): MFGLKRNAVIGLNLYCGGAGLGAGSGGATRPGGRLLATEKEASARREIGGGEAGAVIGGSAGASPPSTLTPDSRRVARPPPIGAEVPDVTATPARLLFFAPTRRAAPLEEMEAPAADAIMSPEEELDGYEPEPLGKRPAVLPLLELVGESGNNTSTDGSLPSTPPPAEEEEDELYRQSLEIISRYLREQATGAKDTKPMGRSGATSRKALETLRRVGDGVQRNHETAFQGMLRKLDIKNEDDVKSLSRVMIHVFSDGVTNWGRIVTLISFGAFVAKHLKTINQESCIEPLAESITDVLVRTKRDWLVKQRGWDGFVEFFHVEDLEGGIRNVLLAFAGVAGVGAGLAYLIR
Bcl-xL, sequence (Q07817 whole entry, species assumed): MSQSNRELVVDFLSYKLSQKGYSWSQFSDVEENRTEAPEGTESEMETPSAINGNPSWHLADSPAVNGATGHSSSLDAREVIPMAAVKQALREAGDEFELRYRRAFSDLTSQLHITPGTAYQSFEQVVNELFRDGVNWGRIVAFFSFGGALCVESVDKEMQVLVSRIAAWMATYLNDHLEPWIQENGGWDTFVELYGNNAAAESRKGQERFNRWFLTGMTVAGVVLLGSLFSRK

SMILES: CC[C@H](C)[C@H](NC(=O)[C@H](Cc1c[nH]c2ccccc12)NC(=O)[C@H](C)NC(C)=O)C(=O)N[C@@H](C)C(=O)N[C@@H](C)C(=O)N[C@@H](C)C(=O)N[C@@H](CC(C)C)C(=O)N[C@@H](CCCNC(=N)N)C(=O)N[C@]1(C)CCCCCCC=CCCC[C@@](C)(C(=O)N[C@@H](C)C(=O)N[C@@H](Cc2ccc(F)cc2)C(=O)N[C@@H](C)C(N)=O)NC(=O)[C@H](CC(N)=O)NC(=O)[C@H](Cc2ccccc2)NC(=O)[C@H](C)NC(=O)[C@H](CC(=O)O)NC(=O)CNC(=O)[C@H](CCC(C)C)NC1=O [compound 1780] (Ac-AWIAAALR[R8][hLeu]GDAFN[S5]A[Phe(4-F)]A-NH2; staple 9-16)
Ki (Bcl-xL): 9 nM

SMILES: CC[C@H](C)[C@H](NC(C)=O)C(=O)N[C@@H](Cc1c[nH]c2ccccc12)C(=O)N[C@H](C(=O)N[C@@H](C)C(=O)N[C@@H](CCC(N)=O)C(=O)N[C@@H](C)C(=O)N[C@@H](CC(C)C)C(=O)N[C@@H](CCCNC(=N)N)C(=O)N[C@]1(C)CCCCCCC=CCCCC2(CCCC=CCCC[C@](C)(C(=O)N[C@@H](C)C(N)=O)NC(=O)[C@H](C)NC(=O)[C@H](Cc3ccc(O)cc3)NC(=O)[C@H](Cc3ccc(O)cc3)NC2=O)NC(=O)[C@H](CC(N)=O)NC(=O)[C@H](Cc2ccccc2)NC(=O)[C@H](CCC(=O)O)NC(=O)[C@H](CC(=O)O)NC(=O)CNC(=O)[C@H]([C@@H](C)CC)NC1=O)[C@@H](C)CC (some centres unmarked) [compound 1784]
Ki (Mcl-1): 11.6 nM

SMILES: CC[C@H](C)[C@H](NC(=O)[C@H](Cc1c[nH]c2ccccc12)NC(=O)[C@H](CCCCN)NC(C)=O)C(=O)N[C@@H](C)C(=O)N[C@@H](C)C(=O)N[C@@H](C)C(=O)N[C@@H](CC(C)C)C(=O)N[C@@H](CCCNC(=N)N)C(=O)N[C@]1(C)CCCCCCC=CCCC[C@@](C)(C(=O)N[C@@H](Cc2ccc(O)cc2)C(=O)N[C@@H](Cc2ccc(O)cc2)C(=O)N[C@@H](C)C(N)=O)NC(=O)[C@H](CC(N)=O)NC(=O)[C@H](Cc2ccccc2)NC(=O)[C@H](C)NC(=O)[C@H](CC(=O)O)NC(=O)CNC(=O)[C@H]([C@@H](C)CC)NC1=O [compound 1718] (Ac-KWIAAALR[R8]IGDAFN[S5]YYA-NH2; staple 9-16)
Ki (Mcl-1): 3.9 nM

Results, then the molecule that gave them:

Ki (Bcl-xL): 7.7 nM
SMILES: CC[C@H](C)[C@H](NC(C)=O)C(=O)N[C@@H](Cc1c[nH]c2ccccc12)C(=O)N[C@H](C(=O)N[C@@H](C)C(=O)N[C@@H](CCC(N)=O)C(=O)N[C@@H](C)C(=O)N[C@@H](CC(C)C)C(=O)N[C@@H](CCCNC(=N)N)C(=O)N[C@]1(C)CCCCCCC=CCCC[C@@](C)(C(=O)N[C@@H](Cc2ccc(O)cc2)C(=O)N[C@@H](Cc2ccc(O)cc2)C(=O)N[C@@H](C)C(N)=O)NC(=O)[C@H](CC(N)=O)NC(=O)[C@H](Cc2ccccc2)NC(=O)[C@H](C)NC(=O)[C@H](CC(=O)O)NC(=O)[C@H](C)NC(=O)[C@H]([C@@H](C)CC)NC1=O)[C@@H](C)CC [compound 1665] (Ac-IWIAQALR[R8]IADAFN[S5]YYA-NH2; staple 9-16)

Ki (Mcl-1): 8 nM
SMILES: CC[C@H](C)[C@H](NC(C)=O)C(=O)N[C@@H](Cc1c[nH]c2ccccc12)C(=O)N[C@H](C(=O)N[C@@H](C)C(=O)N[C@@H](CCC(N)=O)C(=O)N[C@@H](C)C(=O)N[C@@H](CC(C)C)C(=O)N[C@@H](CCCNC(=N)N)C(=O)N[C@]1(C)CCCCCCC=CCCC[C@@](C)(C(=O)N[C@@H](Cc2ccc(O)cc2)C(=O)N[C@@H](Cc2ccc3ccccc3c2)C(=O)N[C@@H](C)C(N)=O)NC(=O)[C@H](CC(N)=O)NC(=O)[C@H](Cc2ccccc2)NC(=O)[C@H](C)NC(=O)[C@H](CC(=O)O)NC(=O)CNC(=O)[C@H]([C@@H](C)CC)NC1=O)[C@@H](C)CC [compound 1759] (Ac-IWIAQALR[R8]IGDAFN[S5]Y[2Nal]A-NH2; staple 9-16)
